Drawing on patent US11498921B1, “Pyrimidine or pyridine compounds, preparation method therefor and pharmaceutical uses thereof” (INVENTISBIO CO., LTD., priority 2014, dated 2022), this text covers IC50 for 33 compounds.

Assay type in all cases: cell-based
In test [1] the test system is NCI-H1975 cells (T790M and L858R EGFR mutations). Kind of test: Cell growth inhibition (Cell Titer-Glo), NCI-H1975. To be noted: Homo sapiens, 72 hours drug treatment, 0.03 nM to 100 nM. As for the experimental part: (§1) Experiment of Cell Growth Inhibition
(§2) The LoVo cell line is a wild-type EGFR human colon adenocarcinoma cell, and is grown in F-12K medium (GIBCO) containing 10% FBS. NCI-H2073 cell line is a wild-type EGFR human non-small cell lung cancer cell and grown in ACL-4 medium containing 10% FBS. The growth rate of NCI-H1975, LoVo and NCI-H2073 cells was detected by Cell Titer-Glo luminescence activity assay (Promega #G7572).
(§3) Briefly, trypsin was used for digesting cells in the logarithmic growth phase. 96-well plates were seeded with 50,000 Lovo or NCI-H2073 cells, 2500-3000 NCI-H1975 cells per well and provided with blank control wells containing only nutrient solution without inoculated cell, and the plates were incubated in a humidified incubator with 5% CO2 at 37° C. […] The concentration of test drug in NCI-H1975 cells was from 0.03 nM to 100 nM, and that in LoVo and NCI-H2073 cells was from 3 nM to 10 μM. The cell culture medium containing the different compounds was then added to a 96-well cell plate in which one cell control well comprising cell culture medium only containing DMSO was provided. After a drug treatment for 72 hours, the cell plates were removed from the incubator and allowed to stand at room temperature for 30 minutes. Next, Cell Titer-Glo reagent was added to the wells and the 96-well cell plate was shaken at room temperature for 10 minutes to induce cell lysis. The 96-well cell plate was placed on the bench for 2 minutes to stabilize the luminescence signal. Finally, the 96-well cell plate was placed in an EnVision Multi-labeled Microplate Reader (PerkinElmer), and the signal was read with an integral time of 0.5 seconds.
(§4) Formula: Percentage of cell growth inhibition %=(maximum signal−compound signal)/(maximum signal−minimum signal)*100%
(§5) The maximal signal was obtained from the cell control well which were treated with the DMSO solution having no any compound;
(§6) The compound signal was obtained from the drug-treated cell wells to which the compound was added;
(§7) The minimum signal was obtained from a blank control well to which no cells and only nutrient solution was added.
In general terms: In ATP-based viability assays light output follows the ATP content of the culture.

For test [2], the system named is LoVo cells (wild-type EGFR human colon adenocarcinoma). Kind of test: Cell growth inhibition (Cell Titer-Glo), LoVo. To be noted: 72 hours drug treatment, 3 nM to 10 μM. How it is done: as §1, §2, §3, §4, §5, §6, §7
Test [3] deals with NCI-H2073 cells (wild-type EGFR human non-small cell lung cancer). Kind of test: Cell growth inhibition (Cell Titer-Glo), NCI-H2073. To be noted: 72 hours drug treatment, 3 nM to 10 μM. How it is done: as §1
as §2, with “The compounds that were preferentially targeted for EGFR targeting certain mutations and relatively weak in wild-type EGFR were identified by determining the growth of cells. The NCI-H1975 cell line is a human non-small cell lung cancer cell containing T790M and L858R EGFR mutations, and the cell is grown in RPMI-1640 medium (GIBCO) containing 10% fetal bovine serum (FBS). The LoVo” for “The LoVo”
Briefly, trypsin was used for digesting cells in the logarithmic growth phase. 96-well plates were seeded with 50,000 Lovo or NCI-H2073 cells, 2500-3000 NCI-H1975 cells per well and provided with blank control wells containing only nutrient solution without inoculated cell, and the plates were incubated in a humidified incubator with 5% CO2 at 37° C. After 24 hours, the DMSO solution of the different compounds was diluted with a cell culture medium at 3.16 times per time to eight different concentrations from high to low levels. The concentration of test drug in NCI-H1975 cells was from 0.03 nM to 100 nM, and that in LoVo and NCI-H2073 cells was from 3 nM to 10 μM. The cell culture medium containing the different compounds was then added to a 96-well cell plate in which one cell control well comprising cell culture medium only containing DMSO was provided. After a drug treatment for 72 hours, the cell plates were removed from the incubator and allowed to stand at room temperature for 30 minutes. Next, Cell Titer-Glo reagent was added to the wells and the 96-well cell plate was shaken at room temperature for 10 minutes to induce cell lysis. The 96-well cell plate was placed on the bench for 2 minutes to stabilize the luminescence signal. Finally, the 96-well cell plate was placed in an EnVision Multi-labeled Microplate Reader (PerkinElmer), and the signal was read with an integral time of 0.5 seconds.
as §4, §5, §6, §7

Where a name gives a salt, the structure may show the parent alone.

Consider `C=CC(=O)Nc1cc(Nc2nccc(-c3nn(C)c4ccccc34)n2)c(OC)cc1N(C)CCN(C)C` [1. (HCl)n], for which the IC50 (commonly the concentration that inhibits the measured activity by half) in test [1] was 5.4 nM; in test [2] it was 2260 nM; in test [3] it was 230 nM.
For the compound `C=CC(=O)Nc1cc(Nc2nccc(-n3nnc4ccccc43)n2)c(OC)cc1N(C)CCN(C)C` [2. (MsOH)3], the IC50 in test [1] came out at 6.1 nM; in test [2], 2300 nM; in test [3], 474 nM.
For `C=CC(=O)Nc1cc(Nc2nccc(-n3ccc4ccccc43)n2)c(OC)cc1N(C)CCN(C)C` [3. (MsOH)2], in that order: 6.2 nM, 3090 nM and 295 nM.
In the same order, the values of `C=CC(=O)Nc1cc(Nc2nccc(-n3cc(C)c4ccccc43)n2)c(OC)cc1N(C)CCN(C)C` [4. (MsOH)3] are 8.6 nM, 2570 nM and 500 nM.
With `C=CC(=O)Nc1cc(Nc2nccc(N3CCc4ccccc43)n2)c(OC)cc1N(C)CCN(C)C` [5. (MsOH)3], the IC50 in test [1] came to 5.4 nM; in test [2] it was 4230 nM; in test [3], 335 nM.
Turning to `C=CC(=O)Nc1cc(Nc2nccc(-c3cn(C)c4ccccc34)n2)c(OC)cc1N(C)CCN(C)CC` [7. (MsOH)3], the IC50 came to 9.9 nM in test [1], 2170 nM in test [2] and 760 nM in test [3].
For `C=CC(=O)Nc1cc(Nc2nccc(-c3cn(C)c4ccccc34)n2)c(OC)cc1N(C)CCN(CC)CC` [8. MsOH], in that order: 113 nM, 1940 nM and 870 nM.
Take `C=CC(=O)Nc1cc(Nc2nccc(-c3cn(C)c4ccccc34)n2)c(OC)cc1N(CC)CCN(C)C` [9. (MsOH)2]: the half-maximal inhibitory concentration (IC50) in test [1] is 13 nM; in test [2] it was 2060 nM; in test [3], 1130 nM.
For `C=CC(=O)Nc1cc(Nc2nccc(-c3cn(C)c4ccccc34)n2)c(OC)cc1OCCN(C)C` [29. (MsOH)2], the IC50 came out at 13 nM in test [1], 2520 nM in test [2] and 2520 nM in test [3].
Turning to `C=CC(=O)Nc1cc(Nc2nccc(N3CCOc4ccccc43)n2)c(OC)cc1N(C)CCN(C)C` [36. (MsOH)3], the IC50 in test [1] turned out to be 15 nM; in test [2], 4330 nM; in test [3] it was 410 nM.
For `[2H]C([2H])([2H])n1c(=O)n(-c2ccnc(Nc3cc(NC(=O)C=C)c(N(C)CCN(C)C)cc3OC)n2)c2ccccc21` [65. (MsOH)2], the IC50 in test [1] was determined as 1.9 nM; in test [3], 151 nM.
In the case of `C=CC(=O)Nc1cc(Nc2nccc(-n3c(=O)n(CC)c4ccccc43)n2)c(OC)cc1N(C)CCN(C)C` [66. (MsOH)3], the IC50 came to 3.6 nM in test [1] and 201 nM in test [3].
For `[2H]C([2H])([2H])N(CCN(C)C)c1cc(OC)c(Nc2nccc(-n3c(=O)n(CC)c4ccccc43)n2)cc1NC(=O)C=C` [68. (MsOH)2], in that order: 0.4 nM and 43 nM.
Take `[2H]C([2H])([2H])N(CCN(C)c1cc(OC)c(Nc2nccc(-n3c(=O)n(CC)c4ccccc43)n2)cc1NC(=O)C=C)C([2H])([2H])[2H]` [69. (MsOH)3]: the IC50 in test [1] was 0.8 nM; in test [3], 63 nM.
For `[2H]C([2H])([2H])N(CCN(C)c1cc(OC)c(Nc2nccc(-c3cn(S(C)(=O)=O)c4ccccc34)n2)cc1NC(=O)C=C)C([2H])([2H])[2H]` [70. (MsOH)2], in that order: 0.5 nM and 46 nM.
For `[2H]C([2H])([2H])N(CCN(C)C)c1cc(OC)c(Nc2nccc(-c3cn(S(C)(=O)=O)c4ccccc34)n2)cc1NC(=O)C=C` [71. (MsOH)2], in that order: 0.4 nM and 64 nM.
For the compound `[2H]C([2H])([2H])N(CCN(C)c1cc(OC)c(Nc2nccc(-c3cn(CC)c4ccccc34)n2)cc1NC(=O)C=C)C([2H])([2H])[2H]` [72. (MsOH)3], the IC50 was found to be 2.7 nM in test [1] and 282 nM in test [3].
Regarding `[2H]C([2H])([2H])N(CCN(C)C)c1cc(OC)c(Nc2nccc(-c3cn(CC)c4ccccc34)n2)cc1NC(=O)C=C` [73. (MsOH)2], the IC50 is 1.7 nM in test [1] and 179 nM in test [3].
In the same order, the values of `[2H]C([2H])([2H])N(CCN(C)C)c1cc(OC)c(Nc2nccc(-n3nnc4ccccc43)n2)cc1NC(=O)C=C` [74. (MsOH)3] are 14.4 nM and 463 nM.
On to `[2H]C([2H])([2H])N(CCN(C)C)c1cc(OC)c(Nc2nccc(-n3c(=O)n(C([2H])([2H])[2H])c4ccccc43)n2)cc1NC(=O)C=C` [76. (MsOH)2], for which the IC50 in test [1] was 1 nM; in test [3] it was 56 nM.
In the same order, the values of `C=CC(=O)Nc1cc(Nc2nccc(-c3cn(S(=O)(=O)CC)c4ccccc34)n2)c(OC)cc1N(C)CCN(C)C` [101. (MsOH)2] are 5.5 nM and 193 nM.
For `C=CC(=O)Nc1cc(Nc2nccc(-c3cn(S(=O)(=O)C(C)C)c4ccccc34)n2)c(OC)cc1N(C)CCN(C)C` [102. (MsOH)2], the IC50 in test [1] was found to be 6.4 nM; in test [3], 170 nM.
For `C=CC(=O)Nc1cc(Nc2nccc(-c3cn(S(=O)(=O)C4CC4)c4ccccc34)n2)c(OC)cc1N(C)CCN(C)C` [103. (MsOH)2], in that order: 13.1 nM and 300 nM.
In the case of `C=CC(=O)Nc1cc(Nc2nccc(-c3cn(CC(F)F)c4ccccc34)n2)c(OC)cc1N(C)CCN(C)C` [105. (MsOH)2], the results for the IC50 in test [1] and in test [3] were 15.7 nM and 543 nM, respectively.
For `C=CC(=O)Nc1cc(Nc2nccc(-n3c(=O)n(C(C)C)c4ccccc43)n2)c(OC)cc1N(C)CCN(C)C` [106. (MsOH)2], in that order: 4.7 nM and 155 nM.
Consider `C=CC(=O)Nc1cc(Nc2nccc(-n3c(=O)n(C4CC4)c4ccccc43)n2)c(OC)cc1N(C)CCN(C)C` [107. (MsOH)2], for which the IC50 was found to be 7.4 nM in test [1] and 185 nM in test [3].
For `C=CC(=O)Nc1cc(Nc2nccc(-n3c(=O)n(CC(F)(F)F)c4ccccc43)n2)c(OC)cc1N(C)CCN(C)C` [108. (MsOH)2], in that order: 5.9 nM and 253 nM.
As to `C=CC(=O)Nc1cc(Nc2nccc(-n3c(=O)n(CC(F)F)c4ccccc43)n2)c(OC)cc1N(C)CCN(C)C` [109. (MsOH)2], the values for the IC50 in test [1] and in test [3] were 4.5 nM and 268 nM, respectively.
Turning to `C=CC(=O)Nc1cc(Nc2nccc(N3c4ccccc4N(C)S3(=O)=O)n2)c(OC)cc1N(C)CCN(C)C` [110. (MsOH)2], the values for the IC50 in test [1] and in test [3] were 2.9 nM and 103 nM, respectively.
On to `C=CC(=O)Nc1cc(Nc2nccc(N3c4ccccc4N(CC)S3(=O)=O)n2)c(OC)cc1N(C)CCN(C)C` [111. (MsOH)2], for which the IC50 in test [1] came out at 2.7 nM; in test [3], 49 nM.
In the same order, the values of `C=CC(=O)Nc1cc(Nc2nccc(-n3cc(S(C)(=O)=O)c4ccccc43)n2)c(OC)cc1N(C)CCN(C)C` [112. (MsOH)2] are 100 nM and 5420 nM.
`C=CC(=O)Nc1cc(Nc2nccc(-c3nn(C(C)C)c4ccccc34)n2)c(OC)cc1N(C)CCN(C)C` [113. (MsOH)2]: the values for the IC50 in test [1] and in test [3] were 26.5 nM and 595 nM, respectively.
For `C=CC(=O)Nc1cc(Nc2nccc(-c3cncc4ccccc34)n2)c(OC)cc1N(C)CCN(C)C` [Example 67], in that order: 81.7 nM and 4100 nM.
